{"source": "patent US7420029B2", "about": "“Tissue-specific transporter inhibitor” (Japan Science and Technology Agency, priority 2001, dated 2008)", "key": {"[1]": {"experiment": "CDX plasma pharmacokinetics after instant intravenous injection to rats with or without oral VK-PRX", "conditions": "male, Sprague-Dawley, rat", "description": "(§1) At the column temperature 35° C., 7% of acetonitrile (containing 0.1 M of acetic acid buffer (pH 3.0) and 0.01 M of 1-pentasulfonic acid sodium) was used as a mobile phase for separating elution at flow rate 0.9 ml/min. The detection was conducted at wavelength 240 nm, and CDX concentration in the plasma was determined.\nIn the formula, α, β and V1 represent gradient of distribution phase, gradient of elimination phase, and distribution volume of central compartment, respectively.\n(§2) In the formula, CL represents total clearance, Dose represents the dose of the drug, respectively."}, "hPEPT 1 [2]": {"biological_target": "T1, hPEPT 1 (Homo sapiens, UniProt P46059)", "T1 construct": "expressed in transfected cells; mock = HeLa-pcDNA 3", "T1 sequence (P46059 1-708)": "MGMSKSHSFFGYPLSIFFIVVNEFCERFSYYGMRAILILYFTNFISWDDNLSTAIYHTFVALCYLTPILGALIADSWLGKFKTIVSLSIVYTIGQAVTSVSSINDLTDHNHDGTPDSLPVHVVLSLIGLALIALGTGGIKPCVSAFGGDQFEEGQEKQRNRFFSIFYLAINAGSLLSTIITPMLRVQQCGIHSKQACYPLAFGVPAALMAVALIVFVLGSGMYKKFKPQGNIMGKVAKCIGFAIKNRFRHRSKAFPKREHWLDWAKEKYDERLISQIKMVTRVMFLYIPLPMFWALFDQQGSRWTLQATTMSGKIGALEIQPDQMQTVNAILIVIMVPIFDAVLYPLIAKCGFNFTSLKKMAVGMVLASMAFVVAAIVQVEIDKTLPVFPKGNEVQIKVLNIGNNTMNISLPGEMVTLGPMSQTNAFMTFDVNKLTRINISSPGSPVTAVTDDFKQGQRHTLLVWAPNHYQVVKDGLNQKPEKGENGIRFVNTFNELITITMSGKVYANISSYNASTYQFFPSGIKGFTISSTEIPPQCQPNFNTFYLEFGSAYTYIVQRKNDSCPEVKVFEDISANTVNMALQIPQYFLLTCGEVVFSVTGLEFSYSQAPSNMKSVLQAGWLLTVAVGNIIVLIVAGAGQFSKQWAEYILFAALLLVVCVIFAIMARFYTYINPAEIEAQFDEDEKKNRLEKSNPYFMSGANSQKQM", "experiment": "Inhibitory effect on [^3H] Gly-Sar uptake by HeLa-hPEPT 1 cells", "assay_type": "cell-based", "conditions": "for [^3H] Gly-Sar uptake % of control: HeLa-hPEPT 1, pH 6.0, 2 min", "experimental": "In order to examine the recognition property of VK-PRX and its component, VK-α-CD, both obtained in Example 4, to PEPT 1, the inihibitory effect to the uptake of [^3H] Gly-Sar by using HeLa cells stably expressing hPEPT 1 (HeLa-hPEPT 1) was examined. HeLa-hPEPT 1 cells or HeLa-pcDNA (Mock) cells prepared by the method described previously (Int. J. Cancer. 88, 274-80, 2000) were placed in a multidish (Nunc) at 10^6 cells/well and cultured in an incubator (Hirasawa) at 37° C. and 5% CO2 for four days. As a broth, DMEM (Dulbecco's modified Eagle's medium; Gibco Laboratories) containing 10% FCS (Gibco Laboratories), 2 mM L-glutamine, and 1 mg/ml G418 was used. After culture, the broth was aspirated and each cell was washed three times with 1 ml of Hanks' balanced salt solution (HBSS; 0.952 mM CaCl2, 5.36 mM KCl, 0.441 mM KH2PO4, 0.812 mM MgSO4, 136.7 mM NaCl, 0.385 mM Na2HPO4, 25 mM D-glucose, 10 mM MES: pH 6.0) at 37° C., then preincubated for five minutes. Subsequently, 250 μl of HBSS containing each inhibitor with the concentration shown in FIG. 4 and Table 8, and [^3H(G)] Gly-Sar (476 nM) was added and an uptake reaction was initiated at 37° C. The inhibitors, VK-PRX (No. 1˜6), were prepared such that the highest concentration of dissolved VK-PRX would be 500 μM or lower, and were filtrated through a filter, and then used for the uptake reaction. At the beginning of the reaction, the reaction solution was taken from each dish and placed into […]. Then, 4 ml of liquid scintillation cocktail (Clear-sol I, Nacalai tesque) was added to the solution, and radioactivity in the reaction solution was measured by a liquid scintillation counter (LSC-5100, Aloka Co. Ltd.). Two minutes after the beginning of the reaction, the reaction solution in each dish was removed by aspiration, and the reaction was stopped by washing the cells three times with 1 ml of ice-cooled HBSS (HEPES: pH 7.4). Subsequently, 250 μl of 5 N NaOH was added to each dish to solubilize the cells (for two hours or longer), and 250 μl of 5 N HCl was added for neutralization, then the whole amount was poured into mini vial, and 4 ml of liquid scintillation cocktail (Clear-sol I, Nacalai tesque) was added, and radioactivity taken in the cells was measured.\nFurther, in order to measure the amount of cellular proteins after the culture mentioned above, the cultured cells were solubilized, Bio-Rad Protein Assay reagent (Bio-Rad Co.) was added, and the absorbance at 595 nm was measured. As a standard, BSA (bovine serum albumin) was used. Based on the results, the uptake amount of [^3H] Gly-Sar into the cells [cell/medium ratio (μl/mg·protein)] was calculated according to the formula (3). The value of the control in FIG. 4 is the result of the uptake reaction conducted in the absence of the inhibitor. […] It has been shown that the uptake of [^3H]"}, "PEPT 1 [3]": {"biological_target": "T2, PEPT 1 (Rattus norvegicus, UniProt P51574)", "T2 sequence (P51574 1-710)": "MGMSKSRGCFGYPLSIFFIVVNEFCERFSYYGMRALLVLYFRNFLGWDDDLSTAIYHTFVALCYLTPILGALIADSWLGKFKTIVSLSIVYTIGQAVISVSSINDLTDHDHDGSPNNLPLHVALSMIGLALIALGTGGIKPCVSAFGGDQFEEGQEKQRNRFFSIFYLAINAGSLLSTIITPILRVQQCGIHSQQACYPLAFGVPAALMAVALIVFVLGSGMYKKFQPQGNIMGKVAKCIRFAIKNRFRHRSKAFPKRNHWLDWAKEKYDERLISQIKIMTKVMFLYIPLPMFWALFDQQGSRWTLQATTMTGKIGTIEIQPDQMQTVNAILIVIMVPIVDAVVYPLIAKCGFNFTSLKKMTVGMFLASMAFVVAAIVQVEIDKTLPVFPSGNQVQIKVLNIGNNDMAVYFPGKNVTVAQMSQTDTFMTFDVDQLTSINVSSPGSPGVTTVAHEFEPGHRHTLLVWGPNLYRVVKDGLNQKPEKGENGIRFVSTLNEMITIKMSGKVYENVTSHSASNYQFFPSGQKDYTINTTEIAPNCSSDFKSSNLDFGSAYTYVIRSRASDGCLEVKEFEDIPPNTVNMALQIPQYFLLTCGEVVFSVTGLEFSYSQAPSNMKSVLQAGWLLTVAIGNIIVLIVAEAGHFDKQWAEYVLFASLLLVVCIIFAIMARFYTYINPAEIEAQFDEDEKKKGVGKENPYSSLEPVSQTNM", "conditions": "in vivo, po", "description": "as §1\n(§3) In the formula, C, F, D, ka, ke, Vd and t represent CDX concentration in the plasma, absorptance, dosage, absorption rate constant, elimination rate constant, distribution volume, and time interval between the drug administration and blood collection, respectively.\nas §2\n(§4) With regard to 2.5 mg/kg CDX and 45 mg/kg CEX (▾), CEX was orally administered to the rats 30 minutes before the administration of CDX. Each pharmacokinetic parameter of the above-mentioned rats was calculated based on the change in the CDX concentration in the blood, with the formula (4), the formula (6), the formula (7), and the formula (8), and evaluated. Values shown in the figure and the table are the mean±S.E.M. of three to four independent experiments.\n(§5) Then each pharmacokinetic parameter was calculated based on the change in the CDX concentration in the blood, with the formula (4), the formula (6), the formula (7), and the formula (8), and evaluated. […] Values shown in the figures are the mean±S.E.M. of two to four independent experiments, and values shown in the tables are the mean±S.E.M. of three independent experiments.\n(§6) Values shown in the figure and the table are the mean±S.E.M. of two to four independent experiments.\n(§7) VK-PRK was orally administered 30 minutes before CDX administration. […] Values shown in FIG. 10, FIG. 11 and Table 14 are the mean±S.E.M. of four independent experiments, and values shown in Table 13 are the mean±S.E.M. of three independent experiments.\n(§8) Values shown in the figure are the mean±S.E.M. of three independent experiments, and values shown in the table are the mean±S.E.M. of four independent experiments."}, "PEPT 1 [4]": {"biological_target": "T2, PEPT 1", "experiment": "in vivo", "conditions": "male, Sprague-Dawley, po; for Tmax: Tmax of CDX", "description": "as §1, §3, §2, §4, §5, §6, §7, §8"}, "hPEPT 1 [5]": {"biological_target": "T1, hPEPT 1", "experiment": "Effect of preincubation with inhibitor on [^3H] Gly-Sar uptake by HeLa-hPEPT 1 cells", "assay_type": "cell-based", "conditions": "FIG. 5", "experimental": "Gly-Sar uptake was examined by using HeLa cells stably expressing hPEPT 1 (HeLa-hPEPT 1). In the presence or absence of each inhibitor with concentrations shown in FIG. 5, preincubation was conducted for 30 minutes (open columns), and after the reaction solution was removed, the inhibitory effect on [^3H] Gly-Sar uptake was measured in a manner similar to that of Example 5 except that the uptake reaction was conducted in HBSS containing the same concentration of the inhibitor and [^3H] Gly-Sar (476 nM) (closed columns). In the figure, “Mock” indicates the uptake by HeLa-pcDNA 3 cells. […] Gly-Sar."}}, "data": [{"compound": "CC1=C(C(=O)O)N2C(=O)[C@@H](NC(=O)[C@H](N)c3ccc(O)cc3)[C@H]2SC1", "note": "[Cefadroxil, cefadroxil]", "values": [{"measurement": "Vd", "setting": "[1]", "value": "0.162 ± 0.00899", "unit": "L"}, {"measurement": "clearance", "setting": "[1]", "value": "11 ± 0.41", "unit": "mL/min"}, {"measurement": "[^3H] Gly-Sar uptake % of control", "setting": "hPEPT 1 [2]; inhibitor 10 mM", "value": "27.69 ± 1.44 % of control"}, {"measurement": "dose dependence of AUC0−∞ and Cmax of CDX (in words)", "setting": "PEPT 1 [3]", "value": "saturation phenomenon"}, {"measurement": "AUC0-∞ of CDX", "setting": "PEPT 1 [3]; male, Sprague-Dawley, 5 mg/kg", "value": "272 ± 9.27", "unit": "µg·min/mL"}, {"measurement": "ke (elimination rate constant) of CDX", "setting": "PEPT 1 [3]; male, Sprague-Dawley, 5 mg/kg", "value": "0.54 ± 0.06", "unit": "h⁻¹"}, {"measurement": "AUC(0-inf)", "setting": "PEPT 1 [4]; 5 mg/kg, AUC0-∞ of CDX", "value": 2700, "unit": "ng·h/mL"}, {"measurement": "Tmax", "setting": "PEPT 1 [4]; 5 mg/kg", "value": "1.09 ± 0.08", "unit": "h"}, {"measurement": "k el", "setting": "PEPT 1 [4]; 5 mg/kg, ke (elimination rate constant) of CDX", "value": "8.61e-05", "unit": "s⁻¹"}, {"measurement": "Tmax", "setting": "PEPT 1 [4]; […]", "value": 0.95, "unit": "h"}]}, {"compound": "CC1=C(C(=O)O)N2C(=O)C(NC(=O)C(N)c3ccccc3)C2SC1", "note": "(centres unmarked) [Cephalexin, cephalexin]", "values": [{"measurement": "[^3H] Gly-Sar uptake % of control", "setting": "hPEPT 1 [2]; inhibitor 10 mM", "value": "70.12 ± 1.45 % of control"}]}, {"compound": "NCC(=O)O", "note": "[Gly]", "values": [{"measurement": "[^3H] Gly-Sar uptake % of control", "setting": "hPEPT 1 [2]; inhibitor 10 mM", "value": "97.71 ± 7.10 % of control"}]}, {"compound": "CC(C)[C@H](N)C(=O)N[C@@H](CCCCN)C(=O)O", "note": "[Val-Lys, valyl-lysine]", "values": [{"measurement": "[^3H] Gly-Sar uptake % of control", "setting": "hPEPT 1 [2]; inhibitor 3 mM", "value": "21.13 ± 1.80 % of control"}]}, {"compound": "OC[C@H]1O[C@@H]2O[C@H]3[C@H](O)[C@@H](O)[C@@H](O[C@H]4[C@H](O)[C@@H](O)[C@@H](O[C@H]5[C@H](O)[C@@H](O)[C@@H](O[C@H]6[C@H](O)[C@@H](O)[C@@H](O[C@H]7[C@H](O)[C@@H](O)[C@@H](O[C@H]1[C@H](O)[C@H]2O)O[C@@H]7CO)O[C@@H]6CO)O[C@@H]5CO)O[C@@H]4CO)O[C@@H]3CO", "note": "[α-CD, α-cyclodextrin]", "values": [{"measurement": "Inhibitory effect on [^3H] Gly-Sar uptake (in words)", "setting": "hPEPT 1 [5]", "value": "no inhibitory effect"}, {"measurement": "Inhibitory effect on [^3H] Gly-Sar uptake (in words)", "setting": "hPEPT 1 [2]; HeLa-hPEPT 1, FIG. 4 and Table 8", "value": "significant inhibitory effect was not observed"}, {"measurement": "[^3H] Gly-Sar uptake % of control", "setting": "hPEPT 1 [2]; inhibitor 3 mM", "value": "125.87 ± 23.34 % of control"}]}, {"compound": "Gly-Sar", "values": [{"measurement": "[^3H] Gly-Sar uptake % of control", "setting": "hPEPT 1 [2]; inhibitor 10 mM", "value": "12.93 ± 2.45 % of control"}]}]}
